Laboratory results as given in US8088756B2, “Methods and compositions for oral delivery of FTS” (Concordia Pharmaceuticals, Inc., priority 2004, dated 2012).

Legend:
[1] = Bioavailability of orally administered FTS to rats (plasma FTS by LC/MS); type: in vivo, Crl:CD(SD) (IGS)BR rats; conditions: oral 200 mg/kg in corn oil (95%) and ethanol (5%)
Protocol: FTS was dissolved in a mixture of corn oil (95%) and ethanol (5%). Aliquots of the resulting solution were administered to Crl:CD(SD) (IGS)BR rats (twenty-four) at a dose of 200 mg/kg. Blood samples were collected in lithium-heparin-containing tubes via the retro-orbital plexus while under CO2/O2 anesthesia at 1, 2, 4, 8, 12 and 24 hours after dosing. Concentration of FTS at each time point was determined by LC/MS.

[2] = Bioavailability of orally administered FTS formulated in corn oil (plasma FTS by LC/MS); type: in vivo, CD-1 mice; conditions: CD-1, mouse, 40 mg/kg, mice, gavage, corn oil suspension
Protocol: (§1) FTS (40 mg) was dispersed in corn oil (10 ml). Aliquots of the resulting suspension were administered by gavage to CD-1 mice (eighteen) at a dose of […] (at a volume of 10 ml/kg of FTS suspension calculated for actual animal weight). Blood samples were collected in lithium heparin tubes via the retro-orbital plexus while under CO2/O2 anesthesia at 1, 2, 4, 8, 12 and 24 hours (3 animals at each time point) after dosing. Aliquots (100 μL) of plasma were mixed with water, pH 11 buffer solution and acetonitrile. After centrifugation, the supernatant was evaporated to dryness. The residue was resuspended in water/acetonitrile and centrifuged, and the supernatant was transferred to auto-sampler vials for FTS determination by liquid chromatography/mass spectrometry (LC/MS).
There was a rapid decrease to less than 3 ng/ml after 24 hours.

[3] = Bioavailability of orally administered FTS formulated in 0.5% aqueous carboxymethylcellulose (plasma FTS by LC/MS); type: in vivo, CD-1 mice; conditions: CD-1, mouse, 40 mg/kg, mice, gavage, 0.5% aqueous carboxymethylcellulose suspension
Protocol: as §1, with “Mg)” for “mg)”, “0.5% aqueous carboxymethylcellulose” for “corn oil”, “12,” for “12”, “solution,” for “solution”, “re-suspended” for “resuspended”, “LC/MS.” for “liquid chromatography/mass spectrometry (LC/MS).”

Panc-1 cells = experiment: Inhibition of pancreatic tumor growth with orally administered FTS (subcutaneous Panc-1 implant); type: in vivo, Nude CD1-Nu Mice; conditions: for average tumor weight: control 1.02 g
Protocol: Nude CD1-Nu Mice were implanted subcutaneously with 5.0×10^6 Panc-1 cells in 0.2 ml of PBS just above the right femoral joint. Eleven days after implantation, palpable tumors were observed. FTS was dispersed in 0.5% aqueous carboxymethylcellulose at a concentration of 5 mg/ml. On the eleventh day after implantation, mice were segregated into three groups and were given vehicle or FTS suspension by gavage. Group 1 (Controls, 6 mice) received 0.2 ml vehicle daily. Group 2 (20 mg/kg FTS, 7 mice) received 0.1 ml FTS suspension daily. Group 3 (40 mg/kg FTS, 6 mice) received 0.2 ml FTS suspension daily. Mice were treated for ten days, and were sacrificed. Tumors were excised and weighed.

[4] = Compatibility of FTS with pharmaceutical excipients (accelerated stability, HPLC assay); type: physicochemical; conditions: 1:1 w/w mixture with FTS, 40° C./75% RH, loosely capped vials
Protocol: Physical mixtures (1:1 w/w) of FTS and representative pharmaceutical excipients commonly used in oral formulations were stored at 40° C./75% RH accelerated stress conditions for four weeks in loosely capped vials. Samples were assayed by HPLC at the 0, 2-week and 4-week time points.

[5] = oral, dose 40 mg/ml (10 ml/kg), 1 hour
[6] = oral, dose 40 mg/ml (10 ml/kg), 2 hours
[7] = oral, dose 40 mg/ml (10 ml/kg), 24 hours
[8] = po, read-out: oral bioavailability compared to intra-peritoneal injection
[9] = 20 mg/kg FTS daily by gavage in 0.5% CMC for ten days
[10] = 40 mg/kg FTS daily by gavage in 0.5% CMC for ten days

concentration at 1 h ([1]; Crl:CD(SD) (IGS)BR, rat, plasma, 1 hour): 4450 ng/mL
concentration at 2 h ([1]; Crl:CD(SD) (IGS)BR, rat, plasma, 2 hours): 4550 ng/mL
concentration at 4 h ([1]; Crl:CD(SD) (IGS)BR, rat, plasma, 4 hours): 3050 ng/mL
concentration at 8 h ([1]; Crl:CD(SD) (IGS)BR, rat, plasma, 8 hours): 2220 ng/mL
concentration at 12 h ([1]; Crl:CD(SD) (IGS)BR, rat, plasma, 12 hours): 685 ng/mL
concentration at 24 h ([1]; Crl:CD(SD) (IGS)BR, rat, plasma, 24 hours): 140 ng/mL
oral bioavailability (in words) [1]: high level of oral bioavailability
concentration at 1 h [2, 5]: 2160 ng/mL
concentration at 2 h [2, 6]: 1330 ng/mL
concentration at 24 h [2, 7]: < 3 ng/mL
bioavailability [2, 8]: 55%
concentration at 1 h [3, 5]: 3380 ng/mL
concentration at 2 h [3, 6]: 1590 ng/mL
concentration at 24 h [3, 7]: < 3 ng/mL
bioavailability [3, 8]: 69%
HPLC assay, 0 weeks ([4]; 0 weeks, in % (unit assumed)): 97.75
HPLC assay, 2 weeks ([4]; 2 weeks): 97.1%
HPLC assay, 4 weeks ([4]; 4 weeks, in % (unit assumed)): 97.76
Structure (SMILES): CC(C)=CCC/C(C)=C/CC/C(C)=C/CSc1ccccc1C(=O)O [FTS, farnesyl-thiosalicylic acid]
tumor weight lower than control (Panc-1 cells; [9]): 32%
average tumor weight (Panc-1 cells; [9]): 0.68 g
tumor weight lower than control (Panc-1 cells; [10]): 53%
average tumor weight (Panc-1 cells; [10]): 0.47 g
